Results on 20 compounds are retold here after patent US5140015A, “2-aralkoxy and 2-alkoxy adenosine derivatives as coronary vasodilators and antihypertensive agents” (Whitby Research, Inc., priority 1990, dated 1992).

What all share (set-up): species or system guinea pig (female Sprague-Dawley)
Test [1] deals with T1, A2 receptor of the coronary artery (Cavia porcellus, UniProt P46616).
T1 construct: perfused hearts from female Sprague-Dawley guinea pigs in an isolated Langendorff heart preparation; from tissue; host or cells: isolated perfused guinea pig heart (Langendorff), coronary vasculature
The test can be described thus: Coronary flow increase in isolated perfused heart (Langendorff preparation). On the procedure: (§1) Assays of the cardiovascular potency of the above compounds at the A1 receptors of the SA node and at the A2 receptor of the coronary artery employed perfused hearts from female Sprague-Dawley guinea pigs in an isolated Langendorff heart preparation. An assay consists of an infusion of a spectophotometrically standardized solution of test compound directly into the aortic cannula at rates increasing stepwise every 5 minutes. Collection of the total cardiac effluent during the first half of each infusion period provides a measure of coronary flow (A2 effect). The concentration of test compound required to produce a half-maximal increase in coronary flow is determined. Registration of the ECG assesses the effect of the test compound on SA node (stimulus to Q interval, A1 effect). The concentration of test compound required to produce a half-maximal prolongation of stimulus to Q interval is determined. […] The ratio of A1 and A2 effects of test compounds are calculated to provide the selectivity ratio.

For test [2], the target named is T2, A1 receptors of the SA node (Cavia porcellus, UniProt P47745).
T2 construct: perfused hearts from female Sprague-Dawley guinea pigs in an isolated Langendorff heart preparation; from tissue; host or cells: isolated perfused guinea pig heart (Langendorff), nodal tissue
T2 sequence (P47745 1-326): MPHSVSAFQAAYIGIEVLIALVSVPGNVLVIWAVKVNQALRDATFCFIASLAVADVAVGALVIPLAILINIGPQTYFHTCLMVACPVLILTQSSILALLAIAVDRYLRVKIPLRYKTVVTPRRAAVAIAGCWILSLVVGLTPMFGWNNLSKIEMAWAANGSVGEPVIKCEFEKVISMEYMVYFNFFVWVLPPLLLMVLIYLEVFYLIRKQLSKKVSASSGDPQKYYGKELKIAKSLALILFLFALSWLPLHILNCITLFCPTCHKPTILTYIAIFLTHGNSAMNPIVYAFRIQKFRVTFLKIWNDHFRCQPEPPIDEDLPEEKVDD
The test can be described thus: SQ (stimulus to Q interval) prolongation in isolated perfused heart (Langendorff preparation). The following applies: isolated perfused guinea pig heart; concentration for half-maximal prolongation of stimulus to Q interval; read-out: SQ Prolongation (A1) ED50. As to the method: as §1

Test [3] relates to A2 receptor of the coronary artery. The test can be described thus: Coronary flow increase in isolated perfused heart (Langendorff preparation). The following applies: ratio of A1 (SQ prolongation) and A2 (coronary flow) effects. As to the method:
as §1

Where [4] appears, read: isolated perfused guinea pig heart, concentration for half-maximal increase in coronary flow, stepwise infusion every 5 minutes, read-out: Coronary Blood Flow Increase (A2) EC50.

Read-outs that look alike come from different tables or passages of the source.

T1 sequence (P46616 whole entry, the tested form may be a part): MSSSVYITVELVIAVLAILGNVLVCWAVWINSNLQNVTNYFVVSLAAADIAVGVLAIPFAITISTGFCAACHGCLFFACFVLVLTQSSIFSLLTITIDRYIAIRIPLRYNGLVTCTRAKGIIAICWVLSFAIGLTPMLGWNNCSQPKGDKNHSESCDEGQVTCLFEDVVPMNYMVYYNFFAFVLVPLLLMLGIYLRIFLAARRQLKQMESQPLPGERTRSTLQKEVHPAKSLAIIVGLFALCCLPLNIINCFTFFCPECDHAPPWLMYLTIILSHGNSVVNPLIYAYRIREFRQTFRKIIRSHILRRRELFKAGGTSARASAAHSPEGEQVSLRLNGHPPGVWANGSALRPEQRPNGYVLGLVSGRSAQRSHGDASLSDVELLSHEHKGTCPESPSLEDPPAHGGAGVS

Take `Nc1nc(OCCCc2ccccc2)nc2c1ncn2[C@@H]1O[C@H](CO)[C@@H](O)[C@H]1O` [Example 1, 2-(3-phenyl-1-propoxy)adenosine]: the EC50 in test [1] (setting [4]) was 61.3 nM. Same read-out and setting: the result for `Nc1nc(OCCc2ccc(F)cc2)nc2c1ncn2[C@@H]1O[C@H](CO)[C@@H](O)[C@H]1O` [Example 2, 2-[2-(4-fluorophenyl)ethoxy]adenosine] reads 0.9 nM. As to `Nc1nc(OC2CCCC2)nc2c1ncn2[C@@H]1O[C@H](CO)[C@@H](O)[C@H]1O` [Example 3, 2-Cyclopentyloxyadenosine], the EC50 is 91.7 nM in test [1] (setting [4]) and 79400 nM in test [2].

In the case of `Nc1nc(OC2CCCCC2)nc2c1ncn2[C@@H]1O[C@H](CO)[C@@H](O)[C@H]1O` [Example 4, 2-Cyclohexyloxyadenosine], the EC50 was 657 nM in test [1] (setting [4]) and 100000 nM in test [2]. Take `Nc1nc(OCCC2CCCCC2)nc2c1ncn2[C@@H]1O[C@H](CO)[C@@H](O)[C@H]1O` [Example 5, 2-(2-Cyclohexylethoxy)adenosine]: in test [2], the EC50 was 8630 nM. On to `Nc1nc(OCc2ccccc2)nc2c1ncn2[C@@H]1O[C@H](CO)[C@@H](O)[C@H]1O` [Example 6, 2-benzyloxyadenosine], for which, in test [1] (setting [4]), the EC50 was determined as 419 nM. Further, the “Selectivity (A1/A2)” value in test [3] amounted to 15. Regarding `Nc1nc(OCCc2ccccc2)nc2c1ncn2[C@@H]1O[C@H](CO)[C@@H](O)[C@H]1O` [Example 7, 2-(2-phenylethoxy)adenosine], the EC50 in test [1] (setting [4]) was found to be 2.8 nM. For `COc1ccccc1CCOc1nc(N)c2ncn([C@@H]3O[C@H](CO)[C@@H](O)[C@H]3O)c2n1` [Example 8, 2-[2-(2-methoxyphenyl)ethoxy]adenosine], the EC50 in test [1] (setting [4]) came to 32 nM. With `COc1cccc(CCOc2nc(N)c3ncn([C@@H]4O[C@H](CO)[C@@H](O)[C@H]4O)c3n2)c1` [Example 9, 2-[2-(3-methoxyphenyl)ethoxy]adenosine], the EC50 in test [1] (setting [4]) turned out to be 2.6 nM. As to `COc1ccc(CCOc2nc(N)c3ncn([C@@H]4O[C@H](CO)[C@@H](O)[C@H]4O)c3n2)cc1` [Example 10, 2-[2-(4-methoxyphenyl)ethoxy]adenosine], in test [1] (setting [4]), the EC50 is 1.4 nM.

As to `Cc1ccccc1CCOc1nc(N)c2ncn([C@@H]3O[C@H](CO)[C@@H](O)[C@H]3O)c2n1` [Example 11, 2-[2-(2-methylphenyl)ethoxy]adenosine], the EC50 in test [1] (setting [4]) was found to be 3.8 nM. On to `COc1cc(CCOc2nc(N)c3ncn([C@@H]4O[C@H](CO)[C@@H](O)[C@H]4O)c3n2)cc(OC)c1OC` [Example 12, 2-[2-(3,4,5-trimethoxyphenyl)ethoxy]adenosine], for which the EC50 in test [1] (setting [4]) was 22 nM.

With `Nc1nc(OCCc2cccs2)nc2c1ncn2[C@@H]1O[C@H](CO)[C@@H](O)[C@H]1O` [Example 13, 2-[2-(2-thienyl)ethoxy]adenosine], the EC50 in test [1] came to 3.7 nM. On to `Nc1nc(OCCc2ccsc2)nc2c1ncn2[C@@H]1O[C@H](CO)[C@@H](O)[C@H]1O` [Example 14, 2-[2-(3-thienyl)ethoxy]adenosine], for which the EC50 in test [2] came out at 18800 nM.

For the compound `CC(COc1nc(N)c2ncn([C@@H]3O[C@H](CO)[C@@H](O)[C@H]3O)c2n1)c1ccccc1` (stereo partly drawn) [Example 17, 2-(2-phenyl-1-propoxy)adenosine], the EC50 in test [1] (setting [4]) turned out to be 9 nM; in test [2], 53100 nM. As for `CC[C@@H](COc1nc(N)c2ncn([C@@H]3O[C@H](CO)[C@@H](O)[C@H]3O)c2n1)c1ccccc1` [Example 18], in test [3], the “Selectivity (A1/A2)” value was 50. With `CC[C@H](COc1nc(N)c2ncn([C@@H]3O[C@H](CO)[C@@H](O)[C@H]3O)c2n1)c1ccccc1` [Example 19, 2-[(2S)-phenyl-1-butoxy]adenosine], the EC50 was 31.4 nM in test [1] (setting [4]) and 27400 nM in test [2]. For `Nc1nc(OCCCCc2ccccc2)nc2c1ncn2[C@@H]1O[C@H](CO)[C@@H](O)[C@H]1O` [Example 20, 2-(4-phenyl-1-butoxy)adenosine], the EC50 in test [1] was determined as 9.9 nM; in test [2], 7360 nM. Consider `CCNC(=O)[C@H]1O[C@@H](n2cnc3c(N)nc(OCCc4ccccc4)nc32)[C@H](O)[C@@H]1O` [Example 22, 2-(2-phenyl)ethoxy-5'-N-ethylcarboxamidoadenosine], for which the EC50 was determined as 1.3 nM in test [1] (setting [4]) and 15000 nM in test [2]. As to `Nc1nc(OCCCC2CCCCC2)nc2c1ncn2[C@@H]1O[C@H](CO)[C@@H](O)[C@H]1O` [Example 23, 2-(3-cyclohexyl)propoxyadenosine], in test [2], the EC50 was 3760 nM.
